Measurements from patent US5944026A, “Tobacco products or materials resembling tobacco products containing natural substances having an antioxidative effect and processes for the preparation thereof” (priority 1994, dated 1999).
Where two headings read alike, the source gives them in different places.

Columns and labels:
[1] = Solubility/miscibility of aromatic substances, vitamins A and E and β-carotene in natural substances used as solvents; format: physicochemical
[2] = Solubility of aromatic substances and the vitamins A and E in filter hardeners; conditions: for solubility in hardener TEGDA: hardener: TEGDA (triethylene glycol diacetate)
[3] = system: Salmonella typhimurium, strain TA 98; test: Ames test (TA98): antimutagenic effect of added substances on mutagenicity of cigarette smoke condensate; format: cell-based; conditions: graphical representation in figure
Protocol: To detect this antimutagenic action, the Ames test (loc.cit.) was carried out as a meaningful rapid test.
It was ensured in this process that work was carried out in a concentration range which was not toxic for the bacteria.

[4] = system: Salmonella typhimurium, strain TA 98; test: Ames test with S9 activation: smoke condensate of experimental cigarettes with cloves, cinnamon sticks or eugenol; format: cell-based; conditions: additions to cut tobacco
Protocol: Five versions of filter cigarettes which differ in the composition of the final mixture according to Table 6 and have the same tobacco base mixture were prepared in the same format and same cigarette weight (940 mg). The cloves or cinnamon sticks employed were moistened with steam, rolled and cut before mixing with tobacco.
The experimental cigarettes were smoked under standard conditions (see Example 1).

SMILES | solubility in cinnamaldehyde as a solvent ([1]; solvent: cinnamaldehyde) | solubility in eugenol as a solvent [1] | solubility in jasminealdehyde as a solvent ([1]; solvent: jasminealdehyde) | solubility in hardener triacetin [2] | mutagenicity of cigarette smoke condensate on addition of the substance [3] | also measured
Cc1ccc2oc(=O)ccc2c1 [6-Methylcoumarin] |  |  |  |  |  | solubility in cinnamaldehyde as a solvent [1]: > 10 % by weight; solubility in jasminealdehyde as a solvent [1]: > 10 % by weight
CCOc1cc(C=O)ccc1O [Ethylvanillin] | > 10 % by weight | > 10 % by weight | > 10 % by weight | > 10 % by weight |  | solubility in vitamin E acetate as a solvent [1]: < 1 % by weight; solubility in hardener TEGDA [2]: > 10 % by weight; solubility in hardener eugenol [2]: > 10 % by weight
CC1=C(/C=C/C(C)=C/C=C/C(C)=C/CO)C(C)(C)CCC1 [Vitamin A, retinol] |  |  |  |  |  | solubility in cinnamaldehyde as a solvent [1]: > 10 % by weight; solubility in jasminealdehyde as a solvent [1]: > 10 % by weight
Cc1c(C)c2c(c(C)c1OC(=O)CCC(=O)O)CC[C@@](C)(CCC[C@H](C)CCC[C@H](C)CCCC(C)C)O2 [Vitamin E succinate, tocopherol succinate] | > 10 % by weight | > 10 % by weight | > 10 % by weight | < 1 % by weight |  | solubility in hardener TEGDA [2]: < 1 % by weight; solubility in hardener eugenol [2]: 10 % by weight
Cc1c(C)c2c(c(C)c1O)CCC(C)(CCCC(C)CCCC(C)CCCC(C)C)O2 (stereo not drawn) [Vitamin E, α-tocopherol] |  |  |  | > 10 % by weight |  | 
O=C(O)/C=C/c1ccc(O)c(O)c1 [caffeic acid, Caffeic acid] |  |  |  |  | reduction of the mutagenicity | 
COc1cc(/C=C/C(=O)CC(=O)/C=C/c2ccc(O)c(OC)c2)ccc1O [curcumin, Curcumin] |  |  |  |  | reduction of the mutagenicity | 
C=CCc1ccc(O)c(OC)c1 [eugenol, Eugenol] |  |  |  |  | reduction of the mutagenicity | mutagenic effect of the smoke condensate (in words) [4]: decrease the mutagenic effect of the smoke condensate
COc1cc2ccc(=O)oc2cc1O [scopoletin, 7-hydroxy-6-methoxycoumarin] |  |  |  |  | reduction of the mutagenicity | 
CC1=C(/C=C/C(C)=C/C=C/C(C)=C/C=C/C=C(C)/C=C/C=C(C)/C=C/C2=C(C)CCCC2(C)C)C(C)(C)CCC1 [β-carotene] | > 1 % by weight | < 1 % by weight | < 1 % by weight |  |  | solubility in vitamin E acetate as a solvent [1]: < 1 % by weight
